Test results taken from US10874638B2, “Methods and compositions for modulating hormone levels” (priority 2014, dated 2020).
Where two headings read alike, the source gives them in different places.

What was measured:
postmenopausal women = conditions: cited from earlier work
[1] = test system: intact cynomolgus male and female monkeys; assay: Intact cynomolgus monkey model; format: in vivo; conditions: females, Day 90
[2] = test system: ovariectomized mature female rats; assay: Ovariectomized mature female rat model; format: in vivo
Method: Ovariectomized mature female rats are used to characterize primarily bone activity of the compositions provided herein or the individual SERM or SARM compounds. A sham group is used as control. The model can be run in either maintenance mode where the animals are dosed one day after the ovariectomy or restoration mode where the animals are dosed seven to eight weeks after the surgery. The rats are scanned by dual energy x-ray absorptiometry and sorted into experimental groups based upon femoral bone mineral content (BMC). Three dosages of testing compositions/compounds are administered orally once a day for 4, 8, or 12 weeks and estradiol and testosterone are administered subcutaneously to the reference groups. Animals received subcutaneous injections of fluorochrome markers for bone histomorphometric analysis. Alizarian Red S was prepared as a 3% solution and given at a dose of 30 mg/kg at the time of the baseline scan. Calcein was administered 10 days and 3 days prior to necropsy.
Approximately 24 hours after the last dose, blood is collected and the gastrocnemius muscle, plantaris muscle, uterus, clitoral glands, clitoris and inguinal fat pads were isolated, blotted and weighed individually. The left femur and lumbar vertebra L5 are wrapped in saline-soaked gauze and stored at −20° C. for biochemical analysis. The right femur and lumbar vertebrae L3-L4 are collected and stored in 70% ethanol for histomorphometry. The right tibia is collected in formalin for histological analysis. The left tibia is collected on dry ice and stored at −20° C. for measurement of alkaline phosphatase activity.
BMC, bone mineral density (BMD) and bone length are measured by pDEXA on an entire femur. The coefficient of variation for repeated measurement of the isolated femur is less than 0.4% for the BMC and the BMD measurements. […] Serum osteocalcin, a marker for bone turnover, and alkaline phosphatase derived from the tibial periosteum are also measured. Whole femurs are collected for biomechanical analysis and thawed at room temperature prior to testing. Peak load and peak displacement are measured directly from the load cell and the crosshead, respectively. Stiffness is calculated from the slope of the linear region of the load/displacement curve. Lumbar vertebra L5 is also measured in the mechanical testing for bone strength.
Bone histomorphometry is performed to indicate growth of the new bone during the study. The section from the lumbar vertebral bodies is used for histomorphometric indices of cancellous bone, while the sections of the femur mid-shafts are used for histomorphometric indices of cortical bone.
Body weight, gastrocnemius weight and plantaris weight changes are measured indicating anabolic activity of the testing compositions/compounds on skeletal muscle. Inguinal fat pad weight is used as a representative fat pad to assess the effects of the testing compounds on body fat. Clitoral gland and clitoral weights are measured to assess the virilizing effect of drugs.
In the maintenance node of this model, (5R,6S)-6-phenyl-5-[4-(2-pyrrolidin-1-ylethoxy)phenyl]-5,6,7,8-tetrahydronaphthalen-2-ol (Compound 1) was dosed daily at 0 (sham), 0 (OVX), 0.01, 0.05, and 0.25 mg/kg for 8 weeks and 17α-ethynylestradiol was dosed at 0.03 mg/kg/day. […] Micro-computerized tomography (uCT) measured the density and connectivity of the trabecular bone in the femur and pQCT measured at the distal femur.
In the restoration mode of this osteopenic female rat model, 4-(2(R)-(1(S)-hydroxyl-2,2,2-trifluoroethyl)-pyrrolidinyl)-2-trifluoromethylbenzonitrile (Compound 2, Formula I, R^1═CF3, R^2═R^3═H) was dosed at 0 (sham), 0 (OVX), 0.03, 0.3, and 3 mg/kg orally for 12 weeks. […] Compound 2 suppressed cancellous bone turnover while increasing trabecular bone volume and increasing bone mineral density at the lumbar spine.
In the same experiment of Compound 2, another SARM compound, ostarine, was dosed at 0.03, 0.3, and 3 mg/kg/day orally for 12 weeks.

ER = conditions: read-out: IC50 binding affinity to ER; cited from earlier work
healthy male subjects = format: in vivo, human
Method: In a random, double-blind, placebo controlled study, Compound 1 was given orally to healthy male subjects age from 18 to 45 years. Subjects received either placebo or Compound 1 under fasted/fed conditions at single escalating doses of 0, 1, 3, 10, 30, and 100 mg. Total serum T level was determined at days 0, 1, 7, 14, 21, and 28.

[3] = test system: intact cynomolgus male and female monkeys; assay: Intact cynomolgus monkey model; format: in vivo; conditions: for serum cholesterol decrease, of the corresponding Day −3 values: males and females
Method: Intact cynomolgus male and female monkeys are used to assess of the effects of the compositions provided herein or the individual SERM or SARM compounds on hypothalamic-pituitary-gonadal axis and lipid profile. All animals are dosed via oral or nasol gavage once daily for consecutive days with either vehicle or testing articles of different doses. The first day of dosing is designated Day 1 for all animals. Blood samples are collected for analysis of LH, FSH, T, Estrodiol, total cholesterol, triglycerides, cortisol, and coagulation parameters included prothrombin time (PT) and activated partial thromboplastin time on Days −3 and end of the study.
In this model, Compound 2 was dosed at 0, 5, 50, 150, and 450 mg/kg/day for 14 days. […] In a separate study, the compound was dosed at 0, 3, 10, 30, 120, and 500 mg/kg/day for 30 days. […] Serum testosterone was suppressed in males as indicated by lower 75th, 50th, and 25th percentile values in samples from treated monkeys than vehicle controls.
In this model, Compound 1 was dosed at 0, 1, 5, and 15 mg/kg/day for 3 months.

[4] = test system: orchidectomized male Sprague-Dawley rat; assay: Orchidectomized mature male rat model
healthy young men = conditions: cited from earlier work
[5] = molecular target: T1, 5α-reductase type I isoenzyme (Homo sapiens, UniProt P18405); conditions: cited from earlier work
T1 sequence (P18405 1-259): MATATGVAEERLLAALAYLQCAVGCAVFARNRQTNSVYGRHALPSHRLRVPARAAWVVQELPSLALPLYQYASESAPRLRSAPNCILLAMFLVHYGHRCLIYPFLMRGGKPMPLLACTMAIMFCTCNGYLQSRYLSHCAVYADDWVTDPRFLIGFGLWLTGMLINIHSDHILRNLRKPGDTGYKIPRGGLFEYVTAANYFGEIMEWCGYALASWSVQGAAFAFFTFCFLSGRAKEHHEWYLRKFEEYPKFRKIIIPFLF

prostate DHT level = conditions: in clinic; up to; cited from earlier work
[6] = 100 mg fasted, single oral dose
[7] = restoration mode, 0.3 mg/kg/day dose
[8] = restoration mode, 0.03, 0.3, 3 mg/kg orally for 12 weeks
[9] = females, 3 to 500 mg/kg/day for 30 days

## Oc1ccc2c(c1)CC[C@H](c1ccccc1)[C@@H]2c1ccc(OCCN2CCCC2)cc1 [Compound 1, (5R,6S)-6-phenyl-5-[4-(2-pyrrolidin-1-ylethoxy)phenyl]-5,6,7,8-tetrahydronaphthalen-2-ol]
Postmenopausal women
  beneficial effects in postmenopausal women: reduced risks of nonvertebral and vertebral fractures, ER-positive breast cancer, coronary heart disease, and stroke
[1]; 1 mg/kg/day for 3 months
  serum cholesterol increase, of the corresponding Day −7 values: 26%
[1]; 5 mg/kg/day for 3 months
  serum cholesterol increase, of the corresponding Day −7 values: 16%
[2]; maintenance mode, 8 weeks daily dosing
  bone strength on the lumbar vertebrae: maintained the bone strength
[2]; maintenance mode, daily for 8 weeks, Compound 1 0.01, 0.05, 0.25 mg/kg (all doses), 17α-ethynylestradiol 0.03 mg/kg/day
  uterine wet weight decrease after OVX surgery: block the decrease but at much less extend
[2]; maintenance mode, daily for 8 weeks, Compound 1 0.01, 0.05, 0.25 mg/kg, 17α-ethynylestradiol 0.03 mg/kg/day
  bone density decrease caused by OVX (uCT trabecular bone in the femur, pQCT distal femur): prevent the bone density decrease
ER
  IC50: […]
Healthy male subjects; 1 mg fasted, single oral dose
  Changes of T levels from baseline, Day 1 2 h: 9.9%
  Changes of T levels from baseline, Day 29: 18%
Healthy male subjects; 3 mg fasted, single oral dose
  Changes of T levels from baseline, Day 1 2 h: 13%
  Changes of T levels from baseline, Day 22: 68%
  Changes of T levels from baseline, Day 29: 50%
Healthy male subjects; 10 mg fasted, single oral dose
  Changes of T levels from baseline, Day 1 2 h: −0.5%
  Changes of T levels from baseline, Day 22: 81%
  Changes of T levels from baseline, Day 29: 29%
Healthy male subjects; 30 mg fasted, single oral dose
  Changes of T levels from baseline, Day 1 2 h: −6.9%
  Changes of T levels from baseline, Day 1 12 h: −64%
  Changes of T levels from baseline, Day 8: 39%
  Changes of T levels from baseline, Day 15: 71%
  Changes of T levels from baseline, Day 29: 81%
Healthy male subjects; [6]
  Changes of T levels from baseline, Day 1 12 h: −50%
  Changes of T levels from baseline, Day 8: 84%
  Changes of T levels from baseline, Day 15: 104%
  Changes of T levels from baseline, Day 22: 92%
Healthy male subjects; 100 mg fed, single oral dose
  Changes of T levels from baseline, Day 1 12 h: −48%
  Changes of T levels from baseline, Day 8: 86%
  Changes of T levels from baseline, Day 15: 89%
  Changes of T levels from baseline, Day 29: 91%
Healthy male subjects; men
  stimulation of T production (pharmacokinetic/pharmacodynamic profile in men): superior potency and prolonged mechanism of action
Healthy male subjects; single escalating oral doses 1 to 100 mg
  total serum T level: dose related increase
Healthy male subjects; single oral dose, healthy male subjects
  duration of the elevation of T level: […]
[3]; Day 90, especially in males, 1, 5, 15 mg/kg/day for 3 months
  triglycerides: significant increase
[3]; females, Day 90, 15 mg/kg/day for 3 months
  serum cholesterol increase, of the corresponding Day −7 values: […]
[3]; males, Day 90, 1, 5, 15 mg/kg/day for 3 months
  serum cholesterol: did not change

## N#Cc1ccc(N2CCC[C@@H]2[C@H](O)C(F)(F)F)cc1C(F)(F)F [Compound 2, 4-(2(R)-(1(S)-hydroxyl-2,2,2-trifluoroethyl)-pyrrolidinyl)-2-trifluoromethylbenzonitrile]
[4]; 0.03 to 100 mg/kg/day for 14 days, rat
  exposure versus dose: dose proportional exposure
[4]; at doses that maintained levator ani weights at sham equivalent levels
  efficacy (relative to sham) in sex accessory and sebaceous glands: lower efficacy
[4]; at high doses
  serum LH: suppressed serum LH below sham-equivalent levels
[4]; at the dose of 2 mg/kg/day, rat
  AUC24: 0.2
[4]; restoration mode, 0.03 to 100 mg/kg/day for 14 days
  activity in musculoskeletal endpoints: positive activity
[4]; restoration mode, 14 days
  dose reducing the elevated LH levels in castrate rats: ≥ 10 mg/kg/day
  dose that maintained levator ani weight at sham-equivalent levels: 2 mg/kg/day
  tissue selectivity toward the muscle endpoint: tissue selective activity
[2]; [7]
  activity on the clitoral gland, clitoris or uterus relative to testosterone: reduced activity
  efficacy on muscle and bone compared with testosterone: more efficacious
[2]; [8]
  bone mineral density at the lumbar spine: increasing
  cancellous bone turnover: suppressed
  cortical bone mass, density, strength, stiffness and periosteal bone formation rates: significantly increased
  gastrocnemius muscle weight, plantaris muscle weight and body weight: increased
  inguinal fat pad weight: without affecting
  trabecular bone volume: increasing
Healthy young men
  safety and pharmacokinetic profiles: favorable safety and pharmacokinetic profiles
[3]; Day 14, 5 to 450 mg/kg/day for 14 days
  triglycerides: without dose dependent changes
[3]; Day 14, 5 mg/kg/day for 14 days
  serum cholesterol decrease, of the corresponding Day −3 values: 71%
[3]; Day 14, 50 mg/kg/day for 14 days
  serum cholesterol decrease, of the corresponding Day −3 values: 81%
[3]; Day 14, 150 mg/kg/day for 14 days
  serum cholesterol decrease, of the corresponding Day −3 values: 79%
[3]; Day 14, 450 mg/kg/day for 14 days
  serum cholesterol decrease, of the corresponding Day −3 values: 84%
[3]; female and male monkeys, 3 to 500 mg/kg/day for 30 days
  effect on the hypothalamic-pituitary-gonadal axis: suppressive effect
[3]; [9]
  serum FSH: significantly suppressed
  serum estradiol: significantly suppressed
[3]; males, lower 75th, 50th, 25th percentile values than vehicle controls, 30 days
  serum testosterone: suppressed
[3]; sentence follows the male results, 30 days
  serum FSH: not significantly altered

## CC(C)(C)NC(=O)[C@H]1CC[C@H]2[C@@H]3CC[C@H]4NC(=O)C=C[C@]4(C)[C@H]3CC[C@]12C [finasteride, N-(1,1-dimethylethyl)-3-oxo-(5α,17β)-4-azaandrost-1-ene-17-carboxamide]
[5]
  IC50: 42 nM
Prostate DHT level
  reduction of prostate DHT level: 85-90%
